Data taken from patent publication US20260355196A1, “INHIBITORS AND DEGRADERS OF PIP4K PROTEIN” (Larkspur Biosciences, Inc., priority 2023, published 2026).

Molecular target: T1, PIP4K2C (Homo sapiens, UniProt Q8TBX8)
T1 sequence (Q8TBX8 1-421): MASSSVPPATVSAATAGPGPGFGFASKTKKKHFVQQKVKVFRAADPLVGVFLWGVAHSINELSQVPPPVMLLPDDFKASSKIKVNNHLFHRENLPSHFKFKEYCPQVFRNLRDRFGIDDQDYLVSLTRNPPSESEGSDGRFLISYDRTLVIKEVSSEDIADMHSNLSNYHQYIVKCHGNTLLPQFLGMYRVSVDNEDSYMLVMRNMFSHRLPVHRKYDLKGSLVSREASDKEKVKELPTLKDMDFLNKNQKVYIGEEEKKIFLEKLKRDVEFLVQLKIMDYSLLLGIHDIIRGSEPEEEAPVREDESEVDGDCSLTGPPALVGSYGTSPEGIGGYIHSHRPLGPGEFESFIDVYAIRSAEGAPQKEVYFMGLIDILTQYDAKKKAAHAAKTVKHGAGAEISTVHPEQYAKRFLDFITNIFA
Assay: Enzyme Binding Assay (KINOMEscan): active site-directed competition binding to an immobilized ligand
Set-up: purchased Eurofins DiscoverX, San Diego, CA 87-0007-1094
Details: 11-point dose response, duplicate, top concentration 5 micromolar; read-out: Pip4k2c Kd: IC50
Protocol: Example B-1: Enzyme Binding Assays (KINOMEscan)
PIP4K2C binding constants disclosed herein were determined using the proprietary Human PIP4K2C binding assay (Catalog number 87-0007-1094, Eurofins DiscoverX, San Diego, CA). This assay measures active site-directed competition binding to an immobilized ligand (see https://doi.org/10.1038/nbt1068, herein incorporated by reference in its entirety). Experiments were conducted using an 11-point dose response curve, in duplicate, with a top starting concentration of 5 micromolar; the Levenberg-Marquardt algorithm was used to fit a Hill equation to dose-response data to calculate IC50 values (see Table 5).

SMILES | IC50
NC(=O)[C@@H]1CCC[C@H](Nc2ncc(F)c(-c3ccn(C4CCCCC4)n3)n2)C1 (relative stereo) [Compound 113, cis-3-((4-(1-cyclohexyl-1H-pyrazol-3-yl)-5-fluoropyrimidin-2-yl)amino)cyclohexane-1-carboxamide] | 1000 to 5000 nM
NC(=O)C1CCC(Nc2ncc(Cl)c(-c3cccc(-c4ccccc4)c3)n2)CC1 (centres unmarked) [Compound 1, 4-((4-([1,1′-biphenyl]-3-yl)-5-chloropyrimidin-2-yl)amino)cyclohexane-1-carboxamide] | 500 to 1000 nM
CC(=O)N1CCC(C(=O)N2CCC(Nc3ncc(Cl)c(-c4cccc(-c5ccccc5)c4)n3)CC2)CC1 [Compound 4, 1-(4-(4-((4-([1,1′-biphenyl]-3-yl)-5-chloropyrimidin-2-yl)amino)piperidine-1-carbonyl)piperidin-1-yl)ethan-1-one] | < 500 nM
O=C(CC1CCNCC1)N1CCC(Nc2ncc(Cl)c(-c3cccc(-c4ccccc4)c3)n2)CC1 [Compound 5, 1-(4-((4-([1,1′-biphenyl]-3-yl)-5-chloropyrimidin-2-yl)amino)piperidin-1-yl)-2-(piperidin-4-yl)ethan-1-one] | < 500 nM
CC(=O)N1CCC(CC(=O)N2CCC(Nc3ncc(Cl)c(-c4cccc(-c5ccccc5)c4)n3)CC2)CC1 [Compound 6, 1-(4-((4-([1,1′-biphenyl]-3-yl)-5-chloropyrimidin-2-yl)amino)piperidin-1-yl)-2-(1-acetylpiperidin-4-yl)ethan-1-one] | < 500 nM
O=C(CCC1CCNCC1)N1CCC(Nc2ncc(Cl)c(-c3cccc(-c4ccccc4)c3)n2)CC1 [Compound 7, 1-(4-((4-([1,1′-biphenyl]-3-yl)-5-chloropyrimidin-2-yl)amino)piperidin-1-yl)-3-(piperidin-4-yl)propan-1-one] | < 500 nM
CC(=O)N1CCC(CCC(=O)N2CCC(Nc3ncc(Cl)c(-c4cccc(-c5ccccc5)c4)n3)CC2)CC1 [Compound 8, 1-(4-((4-([1,1′-biphenyl]-3-yl)-5-chloropyrimidin-2-yl)amino)piperidin-1-yl)-3-(1-acetylpiperidin-4-yl)propan-1-one] | < 500 nM
CN1CCC(CC(=O)N2CCC(Nc3ncc(Cl)c(-c4cccc(-c5ccccc5)c4)n3)CC2)CC1 [Compound 9, 1-(4-((4-([1,1′-biphenyl]-3-yl)-5-chloropyrimidin-2-yl)amino)piperidin-1-yl)-2-(1-methylpiperidin-4-yl)ethan-1-one] | < 500 nM
CN1CCC(CCC(=O)N2CCC(Nc3ncc(Cl)c(-c4cccc(-c5ccccc5)c4)n3)CC2)CC1 [Compound 10, 1-(4-((4-([1,1′-biphenyl]-3-yl)-5-chloropyrimidin-2-yl)amino)piperidin-1-yl)-3-(1-methylpiperidin-4-yl)propan-1-one] | < 500 nM
O=C(C1CCC2(CCNCC2)CC1)N1CCC(Nc2ncc(Cl)c(-c3cccc(-c4ccccc4)c3)n2)CC1 [Compound 11, (4-((4-([1,1′-biphenyl]-3-yl)-5-chloropyrimidin-2-yl)amino)piperidin-1-yl)(3-azaspiro[5.5]undecan-9-yl)methanone] | < 500 nM
CN1CCC2(CCC(C(=O)N3CCC(Nc4ncc(Cl)c(-c5cccc(-c6ccccc6)c5)n4)CC3)CC2)CC1 [Compound 12, (4-((4-([1,1′-biphenyl]-3-yl)-5-chloropyrimidin-2-yl)amino)piperidin-1-yl)(3-methyl-3-azaspiro[5.5]undecan-9-yl)methanone] | < 500 nM
CC(=O)N1CCC2(CCC(C(=O)N3CCC(Nc4ncc(Cl)c(-c5cccc(-c6ccccc6)c5)n4)CC3)CC2)CC1 [Compound 13, 1-(9-(4-((4-([1,1′-biphenyl]-3-yl)-5-chloropyrimidin-2-yl)amino)piperidine-1-carbonyl)-3-azaspiro[5.5]undecan-3-yl)ethan-1-one] | < 500 nM
CN1CC(Nc2ncc(Cl)c(-c3cccc(-c4ccccc4)c3)n2)CCC1=O (centres unmarked) [Compound 14, 5-((4-([1,1′-biphenyl]-3-yl)-5-chloropyrimidin-2-yl)amino)-1-methylpiperidin-2-one] | < 500 nM
O=C1CC(Nc2ncc(Cl)c(-c3cccc(-c4ccccc4)c3)n2)CCN1 (centres unmarked) [Compound 15, 4-((4-([1,1′-biphenyl]-3-yl)-5-chloropyrimidin-2-yl)amino)piperidin-2-one] | < 500 nM

Now from value to compound:

IC50 | SMILES
< 500 nM | NC(=O)[C@@H]1CCC[C@H](Nc2ncc(F)c(-c3cccc(-c4cccc(=O)[nH]4)c3)n2)C1 (relative stereo) [Compound 112, cis-3-((5-fluoro-4-(3-(6-oxo-1,6-dihydropyridin-2-yl)phenyl)pyrimidin-2-yl)amino)cyclohexane-1-carboxamide]
< 500 nM | NC(=O)[C@H]1CCC[C@@H](Nc2ncc(Cl)c(C3CCN(C(=O)c4ccc(F)cc4)C3)n2)C1 (relative stereo) [Compound 135, cis-3-((5-chloro-4-(1-(4-fluorobenzoyl)pyrrolidin-3-yl)pyrimidin-2-yl)amino)cyclohexane-1-carboxamide]
< 500 nM | NC(=O)[C@@H]1CCC[C@H](Nc2ncc(Cl)c(-c3cccc(-n4ccccc4=O)c3)n2)C1 (relative stereo) [Compound 136, cis-3-((5-chloro-4-(3-(2-oxopyridin-1 (2H)-yl)phenyl)pyrimidin-2-yl)amino)cyclohexane-1-carboxamide]
< 500 nM | NC(=O)[C@@H]1CCC[C@H](Nc2ncc(F)c(-c3cccc(-c4ccc[nH]c4=O)c3)n2)C1 (relative stereo) [Compound 150, cis-3-((5-fluoro-4-(3-(2-oxo-1,2-dihydropyridin-3-yl)phenyl)pyrimidin-2-yl)amino)cyclohexane-1-carboxamide]
< 500 nM | NC(=O)[C@H]1CCC[C@@H](Nc2ncc(F)c(-c3cccc(C4COC4)c3)n2)C1 (relative stereo) [Compound 170, cis-3-((5-fluoro-4-(3-(oxetan-3-yl)phenyl)pyrimidin-2-yl)amino)cyclohexane-1-carboxamide]
< 500 nM | NC(=O)[C@H]1CCC[C@@H](Nc2ncc(F)c(-c3cccc(C4(O)COC4)c3)n2)C1 (relative stereo) [Compound 173, cis-3-((5-fluoro-4-(3-(3-hydroxyoxetan-3-yl)phenyl)pyrimidin-2-yl)amino)cyclohexane-1-carboxamide]
< 500 nM | CC(C)(O)c1cc(-c2nc(N[C@@H]3CCC[C@H](C(N)=O)C3)ncc2F)ccn1 (relative stereo) [Compound 177, cis-3-((5-fluoro-4-(2-(2-hydroxypropan-2-yl)pyridin-4-yl)pyrimidin-2-yl)amino)cyclohexane-1-carboxamide]
< 500 nM | CC(=O)N1CCCC(c2cccc(-c3nc(N[C@@H]4CCC[C@H](C(N)=O)C4)ncc3F)c2)C1 (relative stereo) [Compound 178, cis-3-((4-(3-(1-acetylpiperidin-3-yl)phenyl)-5-fluoropyrimidin-2-yl)amino)cyclohexane-1-carboxamide]
< 500 nM | NC(=O)[C@H]1CCC[C@@H](Nc2ncc(F)c(-c3cccc(-c4cc[nH]c(=O)c4)c3)n2)C1 (relative stereo) [Compound 200, cis-3-((5-fluoro-4-(3-(2-oxo-1,2-dihydropyridin-4-yl)phenyl)pyrimidin-2-yl)amino)cyclohexane-1-carboxamide]
< 500 nM | NC(=O)[C@H]1CCC[C@@H](Nc2ncc(F)c(-c3cccc(N4CCCOC4=O)c3)n2)C1 (relative stereo) [Compound 227, cis-3-((5-fluoro-4-(3-(2-oxo-1,3-oxazinan-3-yl)phenyl)pyrimidin-2-yl)amino)cyclohexane-1-carboxamide]
< 500 nM | NC(=O)[C@@H]1CCC[C@H](Nc2ncc(F)c(-c3cccc(N4CCOCC4=O)c3)n2)C1 (relative stereo) [Compound 269, cis-3-((5-fluoro-4-(3-(3-oxomorpholino)phenyl)pyrimidin-2-yl)amino)cyclohexane-1-carboxamide]
< 500 nM | NC(=O)[C@@H]1CCC[C@H](Nc2ncc(F)c(-c3cccc(N4CCOCC4=O)n3)n2)C1 (relative stereo) [Compound 627, cis-3-((5-fluoro-4-(6-(3-oxomorpholino)pyridin-2-yl)pyrimidin-2-yl)amino)cyclohexane-1-carboxamide]
< 500 nM | NC(=O)[C@@H]1CCC[C@H](Nc2ncc(F)c(-c3ccnc(N4CCOCC4=O)c3)n2)C1 (relative stereo) [Compound 629, cis-3-((5-fluoro-4-(2-(3-oxomorpholino)pyridin-4-yl)pyrimidin-2-yl)amino)cyclohexane-1-carboxamide]
< 500 nM | O=C(C1CCNCC1)N1CCC(Nc2ncc(Cl)c(-c3cccc(-c4ccccc4)c3)n2)CC1 [Compound 2, (4-((4-([1,1′-biphenyl]-3-yl)-5-chloropyrimidin-2-yl)amino)piperidin-1-yl)(piperidin-4-yl)methanone]
< 500 nM | CN1CCC(C(=O)N2CCC(Nc3ncc(Cl)c(-c4cccc(-c5ccccc5)c4)n3)CC2)CC1 [Compound 3, (4-((4-([1,1′-biphenyl]-3-yl)-5-chloropyrimidin-2-yl)amino)piperidin-1-yl)(1-methylpiperidin-4-yl)methanone]
